Assay: gradient 5% acetonitrile 3 min, to 50% in 2 min, to 85% in 15 min, held 3 min, 100 µL/min
Conditions: column: Zorbax Extend-C18 2.1 x 50 mm; eluents: water / acetonitrile, 0.1% formic acid
Procedure, shortened: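 Standards, all pure, were combined into mixtures of ~100 molecules and run at 100 μL/min on a Zorbax Extend-C18 column (2.1 × 50 mm, 1.8 μm) with water and acetonitrile, each containing 0.1% formic acid. A coupled quadrupole time-of-flight mass spectrometer operated in positive and negative ionization mode. Retention time values come from computationally picked adduct peaks, each inspected manually.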

SMILES | RP-LC retention time [s]
CCn1nccc1C1CCCN1C(=O)c1c(Cl)cnn1C (stereo not given) | 677
CCN1c2ccc(C)cc2C(=O)NC12CCN(C(=O)c1cccc(C)c1)CC2 | 849
CC(Cc1ccccc1)(NC(=O)CN)c1ccccc1 (stereo not given) | 730
CC(C)CN1CCN(C(=O)CCC2CCCN(c3cc(NC4CC4)ncn3)C2)CC1 (stereo not given) | 547
CCOC(=O)Cn1c(=O)c2c(nc3n2CC(C)CN3c2ccc(OCC)cc2)n(C)c1=O (stereo not given) | 958
Cc1nc2cc(N3CC(C(=O)N4CCN(c5ccccc5C)CC4)CC3=O)ccc2o1 (stereo not given) | 848
Cc1cccc2nnc(N3CCC(C(=O)NCc4ccccc4Cl)CC3)n12 | 679
CCN1C(=O)c2cccnc2Sc2cc(CNC(=O)Cc3ccsc3)ccc21 | 728
CC(=O)c1ccc(N2CCN(C(=O)C3Oc4ccccc4NC3=O)CC2)cc1 (stereo not given) | 723
COCc1cc(=O)n(CC(=O)Nc2ccc(F)cc2)c(N2CCOCC2)n1 | 797
Clc1ccc(-c2ccnc3nc(-c4ccccc4)nn23)cc1 | 971
Cc1nn(Cc2nc(-c3ccc(NC(=O)c4ccsc4)cc3)oc2C)c(C)c1C | 955
Cc1cc(C)cc(N2CCC(NC(=O)c3ccc(Cl)s3)C2=O)c1 (stereo not given) | 956
CCn1cnc2ccc(C(=O)NC(C)C)cc2c1=O | 628
COc1ccc2[nH]c3c(c2c1)CCNC31CCN(S(=O)(=O)c2cccnc2)CC1 | 634
Cc1cccc(NC(=O)C2CCN(S(=O)(=O)c3cc(C(=O)N4CCOCC4)cs3)CC2)n1 | 648
CN1C(=O)[C@H]2CN(Cc3ccc(F)cc3Cl)C[C@H]2C1=O | 642
Cc1sc(NC(=O)Cc2ccccc2)nc1-c1ccc2c(c1)NC(=O)CO2 | 830
CCC(=O)O[C@]1(C(=O)CO)CC[C@H]2[C@@H]3CCC4=CC(=O)CC[C@]4(C)[C@H]3CC[C@@]21C | 1060
O=C1NCCCCCCN(C(=O)c2ccsc2)[C@H]2CCCC[C@@H]12 | 786
CCc1nc(-n2cccc2)sc1C(=O)Nc1cccc(C)c1 | 1150
CN1C(=O)c2ccccc2Oc2ccc(C(=O)NCc3ccc(Br)cc3)cc21 | 955
O=C(Cn1cccc1-c1nnc(C2CC2)o1)Nc1ccc(F)c(Cl)c1 | 908

SMILES | RP-LC retention time [s]
CCc1nncn1C1CCN(S(=O)(=O)c2ccc(C)c(C)c2)CC1 | 731
O=C1CCCN1Cc1noc(-c2ccccc2Cl)n1 | 770
O=C1CC(c2noc(-c3ccccc3F)n2)CN1c1ccc(F)c(Cl)c1 (stereo not given) | 1050
CC(C)CNC(=O)C1CCN(C(=O)Nc2ccc(NC(=O)Nc3ccccc3)cc2)CC1 | 812
Cc1cc(C)cc(NC(=O)CN2CCN(Cc3ccccc3)C(=O)C2=O)c1 | 782
O=C(Cn1c(=O)c2cccn2c2ccccc21)NCCCN1CCCCCC1 | 612
CCc1ccc(CNC(=O)CN2CCc3ccccc3C2C(=O)N2CCC(C)CC2)cc1 (stereo not given) | 1050
COc1ccc(-c2nc3ccc(Cl)cn3c2Nc2ccccc2C)cc1 | 832
CCOc1ccccc1NC(=O)N1CCC2(CC1)NC(=O)c1ccc(Cl)cc1N2CC | 955
CCNc1cc(N2CCCC(CCC(=O)N3CCCC(CN4CCCC4)C3)C2)ncn1 (stereo not given) | 571
N#CC1=C2CCCCC2(O)NC1=O (stereo not given) | 655
Fc1ccccc1C(c1nnc(-c2ccccc2)o1)N1CCN(c2ccccn2)CC1 (stereo not given) | 704
CCC(C)NC(=O)c1ccc(-c2ccc(N3CCSCC3)nc2)cc1 (stereo not given) | 711
CC(C)C(=O)Nc1ccc2ncnc(N3CCCC3)c2c1 | 591
Cc1cc(C(N)=O)c2cccc(Cl)c2n1 | 621
COc1ccc(-c2cn3c(CC(=O)Nc4cc(OC)ccc4OC)csc3n2)cc1 | 780
COC(=O)c1ccc(CSc2nnc(C(C)C)c3cnn(-c4ccc(F)cc4)c23)o1 | 840
COc1cc(OC)c(NC(=O)N2CCN(c3ccc(=O)n(-c4ccc(C)cc4)n3)CC2)cc1Cl | 877
CCCN1C(=O)Cc2cc(C(=O)O)ccc21 | 643
Cc1oc(-c2cccc(Cl)c2)nc1Cn1nnc(-c2nc(-c3cccc(F)c3)no2)c1C | 1360
COc1ccccc1CCC(=O)NCc1cccnc1OC | 749
Cc1ccc(F)cc1NC(=O)Cn1c(=O)nc(N2CCCCC2)c2ccccc21 | 841

From the METLIN SMRT retention time set (Domingo-Almenara et al. 2019)
